Reference: ChEMBL document CHEMBL1201862, “PubChem BioAssay data set” (2004)
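Five concentrations, 48 hours, 96-well plates. GI50 marks 50% less growth.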 Active and inactive are the calls of the source. Cut-off read from the data, not from the text of the source: active = GI50 up to about 1.1 µM and inactive = higher.

How the values were obtained:
Assay in all cases: NCI tumour cell line growth inhibition, 48 h
[1] = system: A498
[2] = system: COLO 205
[3] = system: DU-145
[4] = system: HOP-62
[5] = system: K562
[6] = system: KM12
[7] = system: MDA-MB-231
[8] = system: MDA-N
[9] = system: NCI-H226
[10] = system: OVCAR-3
[11] = system: PC-3
[12] = system: RXF 393
[13] = system: SF-295
[14] = system: SNB-19
[15] = system: SR
[16] = system: U-251
[17] = system: CAKI-1
[18] = system: IGROV-1
[19] = system: SK-MEL-5
[20] = system: HOP-92

| SMILES | GI50 [1] | GI50 [2] | GI50 [3] | GI50 [4] | GI50 [5] | GI50 [6] | GI50 [7] | GI50 [8] | GI50 [9] | GI50 [10] | GI50 [11] | GI50 [12] | GI50 [13] | GI50 [14] | GI50 [15] | GI50 [16] | GI50 [17] | GI50 [18] | GI50 [19] | GI50 [20] |
| --- | --- | --- | --- | --- | --- | --- | --- | --- | --- | --- | --- | --- | --- | --- | --- | --- | --- | --- | --- | --- |
| CN[C@@H]1C[C@H]2O[C@@](C)([C@@H]1OC)n1c3ccccc3c3c4c(c5c6ccccc6n2c5c31)C(=O)N[C@@H]4O | < 0.0129 µM (active) | 0.0569 µM (active) | 0.0254 µM (active) | < 0.0134 µM (active) | 0.31 µM (active) | 0.0328 µM (active) | 0.0137 µM (active) | 0.0574 µM (active) | 0.0194 µM (active) | 0.043 µM (active) | 0.00904 µM (active) | < 0.0116 µM (active) | 0.0241 µM (active) | 0.12 µM (active) | 0.0132 µM (active) | 0.0456 µM (active) |  |  |  |  |
| O=C1C2=C(SCCS2)C(=O)c2c(Sc3ccc(Cl)cc3)c(Sc3ccc(Cl)cc3)c(Sc3ccc(Cl)cc3)c(Sc3ccc(Cl)cc3)c21 | 29.2 µM (inactive) | > 100 µM (inactive) | > 100 µM (inactive) | 42.7 µM (inactive) |  | > 100 µM (inactive) | 32 µM (inactive) | > 100 µM (inactive) | 40.8 µM (inactive) | > 100 µM (inactive) | > 100 µM (inactive) | 27 µM (inactive) | 32.5 µM (inactive) | 25.2 µM (inactive) | 21.8 µM (inactive) | 57.8 µM (inactive) | > 100 µM (inactive) | 99.1 µM (inactive) | > 100 µM (inactive) |  |
| COc1ccc(-c2cc(=O)c3c(O)c(OC)c(OC)c(OC)c3o2)cc1 [GARDENIN B] |  | 7.83 µM (inactive) | > 100 µM (inactive) | 24.5 µM (inactive) | 0.498 µM (active) | 0.92 µM (active) | 12.6 µM (inactive) | 0.433 µM (active) | > 100 µM (inactive) | 6.47 µM (inactive) | 30 µM (inactive) | 10.6 µM (inactive) | 20.7 µM (inactive) | 25.4 µM (inactive) | 0.39 µM (active) | 15.5 µM (inactive) | > 100 µM (inactive) | 2.33 µM (inactive) | 5.52 µM (inactive) | 27.4 µM (inactive) |
| Cn1c(N2CCCC2)c(C=O)c(=O)n(C)c1=O | > 100 µM (inactive) | > 100 µM (inactive) | > 100 µM (inactive) | > 100 µM (inactive) | > 100 µM (inactive) | > 100 µM (inactive) | > 100 µM (inactive) | > 100 µM (inactive) | 51.8 µM (inactive) | > 100 µM (inactive) | > 100 µM (inactive) | > 100 µM (inactive) | > 100 µM (inactive) | > 100 µM (inactive) |  | > 100 µM (inactive) | > 100 µM (inactive) | > 100 µM (inactive) | > 100 µM (inactive) | > 100 µM (inactive) |
| CCN(CC)Cc1c(/C=C\c2cc(OC)c(OC)c(OC)c2)ccc(OC)c1O | 6.22 µM (inactive) | 2.45 µM (inactive) | 3.72 µM (inactive) | 5.02 µM (inactive) | 3.27 µM (inactive) | 1.69 µM (inactive) | 4.28 µM (inactive) | 0.387 µM (active) | 3.67 µM (inactive) | 2.08 µM (inactive) | 1.8 µM (inactive) | 2.04 µM (inactive) | 2.03 µM (inactive) | 10.3 µM (inactive) |  | 2.87 µM (inactive) | 4.42 µM (inactive) | 4.2 µM (inactive) | 2.68 µM (inactive) | 8.87 µM (inactive) |
| CN1C(=O)C(C#N)C2C[C@@]1(C)Oc1ccccc12 (stereo partly drawn) | > 100 µM (inactive) | > 100 µM (inactive) | > 100 µM (inactive) | > 100 µM (inactive) | > 100 µM (inactive) | > 100 µM (inactive) | > 100 µM (inactive) | > 100 µM (inactive) | > 100 µM (inactive) | > 100 µM (inactive) | > 100 µM (inactive) | > 100 µM (inactive) | > 100 µM (inactive) | > 100 µM (inactive) |  | > 100 µM (inactive) | > 100 µM (inactive) | > 100 µM (inactive) | > 100 µM (inactive) | > 100 µM (inactive) |
| Cc1nn(-c2ccccc2)c2nc3c(c(C)nn3-c3ccccc3)c(-c3ccc(C(F)(F)F)cc3)c12 | > 100 µM (inactive) | > 100 µM (inactive) | > 100 µM (inactive) | > 100 µM (inactive) | > 100 µM (inactive) | > 100 µM (inactive) | > 100 µM (inactive) | > 100 µM (inactive) | > 100 µM (inactive) | > 100 µM (inactive) | > 100 µM (inactive) | > 100 µM (inactive) | > 100 µM (inactive) | 96.2 µM (inactive) |  | > 100 µM (inactive) | > 100 µM (inactive) |  | > 100 µM (inactive) | > 100 µM (inactive) |
| CN(C)c1ccc(/C=C2\C[C@H]3[C@@H]4CC=C5C[C@@H](O)CC[C@]5(C)[C@H]4CC[C@]3(C)[C@H]2O)cc1 | 17.2 µM (inactive) | 11 µM (inactive) | 34.1 µM (inactive) | 29.4 µM (inactive) | 28 µM (inactive) | 36 µM (inactive) | 16.2 µM (inactive) | 20.2 µM (inactive) | 17.4 µM (inactive) | 22.5 µM (inactive) | 13.1 µM (inactive) | 25.5 µM (inactive) | 20 µM (inactive) | 15.7 µM (inactive) | 21 µM (inactive) | 8.2 µM (inactive) |  | 19.2 µM (inactive) | 17.6 µM (inactive) |  |
| CN1CN(c2ccccc2)C2(CCN(CC(C)(c3ccc(F)cc3)C3OCCCO3)CC2)C1=O (stereo not drawn) |  | 17.7 µM (inactive) | 27.6 µM (inactive) | 16.6 µM (inactive) | 13.2 µM (inactive) | 15.5 µM (inactive) | 24.2 µM (inactive) | 17.3 µM (inactive) | 18.9 µM (inactive) | 11.5 µM (inactive) | 17.4 µM (inactive) | 19.7 µM (inactive) | 18.4 µM (inactive) | 17.3 µM (inactive) | 10 µM (inactive) | 12.8 µM (inactive) | 19.7 µM (inactive) | 18.5 µM (inactive) | 15.7 µM (inactive) |  |
| NC1CC2NC3CCCCC3NC2CC1N (stereo not drawn) | 26.8 µM (inactive) | 42.5 µM (inactive) | 50.2 µM (inactive) |  | 31.8 µM (inactive) | 33.7 µM (inactive) | 61.7 µM (inactive) | 43.8 µM (inactive) | 48.9 µM (inactive) | 40.8 µM (inactive) | 50.9 µM (inactive) | 23.7 µM (inactive) | 31.8 µM (inactive) | 36.2 µM (inactive) | 29.2 µM (inactive) | 28 µM (inactive) | 35 µM (inactive) | 55.2 µM (inactive) | 27.7 µM (inactive) |  |
| CC(C)CC1C(=O)NCCC(NC(=O)C(Cc2ccc(OC(C)(C)C)cc2)NC(=O)OC(C)(C)C)C(=O)NC(Cc2ccccc2)C(=O)NC(Cc2ccccc2)NC1=O (stereo not drawn) |  | 3.32 µM (inactive) | 59.4 µM (inactive) | 19.5 µM (inactive) | 3.02 µM (inactive) | 43.6 µM (inactive) | 4.9 µM (inactive) | 5.82 µM (inactive) | 5.06 µM (inactive) | 4.6 µM (inactive) | 14.5 µM (inactive) | 10.3 µM (inactive) | 5.75 µM (inactive) | 14.4 µM (inactive) | 13.2 µM (inactive) | 12.8 µM (inactive) | 10.8 µM (inactive) | 16 µM (inactive) | 31 µM (inactive) | 11.2 µM (inactive) |
| Cn1c(=O)c2c(ncn2CCCCOc2ccc3c(c2)[n+]([O-])nc(N)[n+]3[O-])n(C)c1=O |  | 17 µM (inactive) | 44.2 µM (inactive) | 22.7 µM (inactive) | 20.9 µM (inactive) | 32.6 µM (inactive) | 30.5 µM (inactive) | 26.1 µM (inactive) | 19.4 µM (inactive) | 20.4 µM (inactive) | 21.3 µM (inactive) | 14.9 µM (inactive) | 32.6 µM (inactive) | 31.1 µM (inactive) | 49.2 µM (inactive) | 18.3 µM (inactive) | 59.8 µM (inactive) | 15.7 µM (inactive) | 9.38 µM (inactive) | 4.76 µM (inactive) |
| CSCCCNC(=O)c1csc(-c2csc(CCNC(=O)CNC(=O)CNC(=O)CNC(=O)OC(C)(C)C)n2)n1 | > 100 µM (inactive) | > 100 µM (inactive) | > 100 µM (inactive) | > 100 µM (inactive) | > 100 µM (inactive) | > 100 µM (inactive) | > 100 µM (inactive) | > 100 µM (inactive) | > 100 µM (inactive) | > 100 µM (inactive) | > 100 µM (inactive) | > 100 µM (inactive) | > 100 µM (inactive) | > 100 µM (inactive) |  | > 100 µM (inactive) | > 100 µM (inactive) | > 100 µM (inactive) | > 100 µM (inactive) | > 100 µM (inactive) |
| O=S(=O)(O)c1ccc(/N=N/c2ccc(/N=N/c3c(O)ccc4ccc(S(=O)(=O)O)cc34)cc2)cc1 |  | > 100 µM (inactive) | > 100 µM (inactive) | > 100 µM (inactive) | > 100 µM (inactive) | > 100 µM (inactive) | > 100 µM (inactive) | > 100 µM (inactive) | > 100 µM (inactive) | > 100 µM (inactive) | > 100 µM (inactive) | > 100 µM (inactive) | > 100 µM (inactive) | > 100 µM (inactive) | > 100 µM (inactive) | > 100 µM (inactive) | > 100 µM (inactive) | > 100 µM (inactive) | > 100 µM (inactive) | > 100 µM (inactive) |
